Measurements reported in patent US9278069B2, “Nanoclusters compositions and methods” (UNIVERSITY OF KANSAS, priority 2005, dated 2016).
Each block holds one compound with its values, some of them ahead of it.

Legend:
[1] = Cascade impaction of diatrizoic acid dry powder and nebulized suspension; type: physicochemical; conditions: flow rate ~30 L/min
Protocol: FDA requires characterization of aerosols using cascade impaction, which determines aerosol particle size; indicative of the probable deposition site in the lung. The nanoparticle agglomerate formulation described above was studied using a Tisch Ambient Cascade Impactor. The study was carried out by applying ˜20 mg powder manually into the orifice of the instrument at an air flow rate of […]. Alternatively, the dry powders were suspended in water and applied into the cascade impactor through a nebulizer equipped with an LC Star atomizer. […] Cut-off particle aerodynamic diameters at 30 L/min for each stage of the impactor were: pre-separator (10.00 μm), stage 0 (9.00 μm), stage 1 (5.8 μm), stage 2 (4.7 μm), stage 3 (3.3 μm), stage 4 (2.1 μm), stage 5 (1.1 μm), stage 6 (0.7 μm), stage 7 (0.4 μm) and filter (0 μm). Diatrizoic acid nanoparticle agglomerates deposited on each stage of the impactor were determined by measuring the difference in weight of filters placed on the stages. The percent emitted fraction (% EF) and fine particle fractions of the total dose (FPFTD) were then calculated. In addition, the mass median aerodynamic diameter, MMAD, and geometric standard deviation, GSD, were obtained by a linear fit of the cumulative percent less-than the particle size range by weight plotted on a probability scale as a function of the logarithm of the effective cut-off diameter.

[2] = Cascade impaction of paclitaxel nanoparticle agglomerates (Tisch Ambient Cascade Impactor); type: physicochemical
Protocol: Aerodynamic characteristics of selected nanoparticle agglomerates were studied in vitro using a Tisch Ambient Cascade Impactor (Tisch Environmental, Inc., Ohio). The study was carried out by applying ˜20 mg powder manually into the orifice of the instrument at an air flow rate of ˜30 L/min. Cut-off particle aerodynamic diameters for each stage of the impactor were: pre-separator ([…]), stage 0 ([…]), stage 1 (5.8 mm), stage 2 (4.7 mm), stage 3 (3.3 mm), stage 4 (2.1 mm), stage 5 (1.1 mm), stage 6 (0.7 mm), stage 7 (0.4 mm) and filter (0 mm). Nanoparticle agglomerates deposited on each stage of the impactor were determined by measuring the difference in weight of filters placed on the stages. The mass median aerodynamic diameter, MMAD, and geometric standard deviation, GSD, were obtained by a linear fit of the cumulative percent less-than the particle size range by weight plotted on a probability scale as a function of the logarithm of the effective cut-off diameter.

[3] = almost all organic solvent; cited from earlier work
[4] = tested on: A549 cells; experiment: Cytotoxicity of budesonide formulations, CellTiter 96 MTS assay; type: cell-based; conditions: up to 5 mg/mL, end of 12 hours
Protocol: In this experiment, 8×10^4 A549 cells/well were seeded in 96-well microtiter plates. At the end of the incubation period (12 h), […] of MTS reagent solution was added to each well and incubated for 3 hours at 37° C. The absorbance was measured at 490 nm using a microtiter plate reader (SpectraMax, M25, Molecular Devices Corp., CA). The percentage of viable cells with all tested concentrations was calculated relative to untreated cells.

[5] = Dispersion stability of budesonide in model propellant HPFP; type: physicochemical; conditions: dispersed in HPFP
Protocol: A trial run for determining the feasibility of budesonide nanoclusters as Metered Dose Inhaler formulations was performed. Budesonide nanoclusters and pure budesonide (milled) were dispersed in model propellant HPFP (2H, 3H perfluoropentane) and their dispersion stability was analyzed. HPFP has similar physico-chemical properties to MDI propellants such as […]. Previous literature studies indicate that dispersion stability of therapeutic molecules is similar in both HPFP and HFA227ea.

[6] = Solubility; type: physicochemical
[7] = Dissolution of insulin particles in PBS (pH 7.4); type: physicochemical; conditions: PBS pH 7.4, 37 °C, FIG. 38
Protocol: Approximately 6 mg of each insulin particle sample was suspended in PBS (pH 7.4). The solution was placed in a 100,000 Dalton biotech grade cellulose ester dialysis tube (Spectrum Labs, Rancho Dominiguez, Calif.) and placed in PBS solution to a final volume of 45 mL. All samples were incubated at 37° C. and shaken at 50 rpm on a shaker table. 1 mL aliquots were taken at various time points up to 8 hours from the bulk solution and replaced with 1 mL of fresh PBS. The insulin concentration was measured using a Coomassie Plus colorimetric protein quantification assay (Thermo Fisher Scientific, Waltham, Mass.). A calibration curve was used to correlate the insulin concentration with the measured absorbance, with insulin concentrations ranging between 1 and 25 μg/mL used as the standard. Dissolved mass was calculated from the measured concentration, and was then normalized to the total loaded mass to determine the percent dissolved. All experiments were performed in triplicate. Analysis of variance (ANOVA) was used to determine statistically significant differences between groups (p<0.05). Comparisons among groups were done using a Fisher's F-test.

[8] = Aerodynamic diameter by time-of-flight measurement (Aerosizer LD); type: physicochemical; conditions: insulin powders
Protocol: (§1) The aerodynamic size distributions of the agglomerate powders were measured directly from lyophilized powder by time-of-flight measurement using an Aerosizer LD (Amherst Instruments) equipped with a 700 mm aperture operating at 6 psi.
as §1, with “The particle size of the dispersed nanoparticle agglomerates as well as the resuspended lyophilized powder was measured using a Coulter Multisizer 3. The” for “The”, “μm” for “mm”
The aerodynamic diameters of the lyophilized powders were determined using an Aerosizer LD (Amherst Process Instruments Inc.). Data were collected over ˜70 seconds under high shear force (˜3.4 kPa) using a 700 μm nozzle.
The particle size was determined from the lyophilized powder using particle time-of-flight analysis. The particle mass mean aerodynamic diameter indentified using this analytical method was 1.0±0.1 μm, which is an ideal particle size for accessing the lung periphery.
Aerodynamic size distribution of the lyophilized powder was obtained by analyzing the time of flight measurements from an Aerosizer LD (Amherst Instruments) equipped with a 700 μm and operating 4 psi. […]

GSD (geometric standard deviation) ([2]; cascade impactor, ~30 L/min): 2.2 ± 0.03
MMAD (mass median aerodynamic diameter) ([2]; cascade impactor, ~30 L/min): 0.08 ± 0.02
% RF (percent respirable fraction) <3.3 ([2]; flow rate ~30 L/min): 0%
% RF (percent respirable fraction) <5.7 ([2]; flow rate ~30 L/min): 0.39 ± 0.3%
% EF (percent emitted fraction) ([2]; lyophilized NA, flow rate ~30 L/min): 68.3 ± 6.1%
Compound: CC(=O)O[C@H]1C(=O)[C@@]2(C)[C@H]([C@H](OC(=O)c3ccccc3)[C@]3(O)C[C@H](OC(=O)[C@H](O)[C@@H](NC(=O)c4ccccc4)c4ccccc4)C(C)=C1C3(C)C)[C@]1(OC(C)=O)CO[C@@H]1C[C@@H]2O [Pure paclitaxel powder, Paclitaxel]

dispersion stability (creaming) [5]: clearly visible layer was seen at 1 hr
dispersion stability (creaming) ([5]; listed as jet milled budesonide): complete creaming
Compound: CCCC1O[C@@H]2C[C@H]3[C@@H]4CCC5=CC(=O)C=C[C@]5(C)[C@H]4[C@@H](O)C[C@]3(C)[C@]2(C(=O)CO)O1 (some centres unmarked) [milled budesonide, Budesonide]

Further lines, the compound ahead of its results:

Compound: CC(=O)Nc1c(I)c(NC(C)=O)c(I)c(C(=O)O)c1I [Diatrizoic acid (powder), Diatrizoic acid]
% EF (percent emitted fraction) [1]: 70 ± 1%
% FPF (fine particle fraction) <3.3 [1]: 4 ± 2^ %
% FPF (fine particle fraction) <5.7 [1]: 21 ± 2%
GSD (geometric standard deviation) [1]: 2 ± 0.1
MMAD (mass median aerodynamic diameter obtained from cascade impactor) [1]: 9 ± 0.1

Compound: CC(=O)Nc1c(I)c(NC(C)=O)c(I)c(C(=O)O)c1I [Diatrizoic acid (suspen.), Diatrizoic acid]
% EF (percent emitted fraction) [1]: 75 ± 5%
% FPF (fine particle fraction) <3.3 [1]: 10 ± 7%
% FPF (fine particle fraction) <5.7 [1]: 33 ± 6%
GSD (geometric standard deviation) [1]: 2 ± 0.1
MMAD (mass median aerodynamic diameter obtained from cascade impactor) [1]: 7 ± 1

Compound: CO[C@H]1/C=C/O[C@@]2(C)Oc3c(C)c(O)c4c(O)c(c(/C=N/N5CCN(C)CC5)c(O)c4c3C2=O)NC(=O)/C(C)=C\C=C\[C@H](C)[C@H](O)[C@@H](C)[C@@H](O)[C@@H](C)[C@H](OC(C)=O)[C@@H]1C [Rifampicin]
solubility in organic solvent [3]: freely soluble

Compound: CCCC1O[C@@H]2C[C@H]3[C@@H]4CCC5=CC(=O)C=C[C@]5(C)[C@H]4[C@@H](O)C[C@]3(C)[C@]2(C(=O)CO)O1 (some centres unmarked) [Stock budesonide, Budesonide]
cytotoxicity [4]: did not show any significant cytotoxicity

Compound: [H]/N=C(/N)N[C@H]1[C@H](O)[C@@H](O)[C@H](O[C@@H]2O[C@@H](C)[C@](O)(C=O)[C@H]2O[C@@H]2O[C@@H](CO)[C@H](O)[C@@H](O)[C@@H]2NC)[C@@H](N/C(N)=N\[H])[C@@H]1O [streptomycin, Streptomycin]
solubility in acetone and ethanol [6]: poorly soluble
solubility in water [6]: freely water soluble

Compound: Unprocessed: Lyophilized insulin powder from bovine pancreas (0.5% zinc content)
insulin dissolution behaviour [7]: follows Higuchi dissolution kinetics
daero [8]: 4.117 ± 1.852 μm
